Measurements reported in ChEMBL document CHEMBL4689842, “EUbOPEN Chemogenomics Library wave 1” (2021).

Tested on: U2OS
Assay: Incucyte cell viability with U2OS; further: filed as whole numbers so only -1 and 0 and 1 occur
Assay type: toxicity, cell-based
Conditions: human, 10 µM, compound concentration 10 uM
[1] = 6 h, replicate number 1, timepoint 6 hours
[2] = 6 h, replicate number 2, timepoint 6 hours
[3] = 12 h, replicate number 1, timepoint 12 hours
[4] = 18 h, replicate number 1, timepoint 18 hours
[5] = 24 h, replicate number 1, timepoint 24 hours
[6] = 0 h, replicate number 1, timepoint 0 hours
[7] = 0 h, replicate number 2, timepoint 0 hours
[8] = 12 h, replicate number 2, timepoint 12 hours
[9] = 18 h, replicate number 2, timepoint 18 hours
[10] = 24 h, replicate number 2, timepoint 24 hours

S=C(NCCCc1c[nH]cn1)NCCCN(Cc1ccc(Cl)c(Cl)c1)c1ccc(Br)cn1
Growth Rate [1]: -1 | Growth Rate [2]: 0 | Growth Rate [3]: 0 | Growth Rate [4]: 0 | Growth Rate [5]: 0

Cc1cc(C)c(S(=O)(=O)N(Cc2ccc(-c3cccc(S(C)(=O)=O)c3)cc2)Cc2ccc(C(F)(F)F)o2)c(C)c1
Growth Rate [6]: 0 | Growth Rate [7]: 1 | Growth Rate [2]: 1 | Growth Rate [3]: 1 | Growth Rate [4]: 1 | Growth Rate [5]: 1

CCc1cccc(CC)c1NC(=O)c1nn(C)c2c1CCc1cnc(Nc3ccc(C(=O)NC4CCN(C)CC4)cc3OC(F)(F)F)nc1-2
Growth Rate [7]: 0 | Growth Rate [1]: 1 | Growth Rate [2]: 0 | Growth Rate [3]: 0 | Growth Rate [4]: 0 | Growth Rate [5]: 0

Cl.Oc1ccc2c3c1O[C@H]1c4[nH]c5c(c4C[C@@]4(O)[C@@H](C2)N(CC2CC2)CC[C@]314)C[C@@]1(O)[C@H]2Cc3ccc(O)c4c3[C@@]1(CCN2CC1CC1)[C@H]5O4
Growth Rate [6]: 0 | Growth Rate [1]: 0 | Growth Rate [3]: 1 | Growth Rate [8]: 0 | Growth Rate [4]: 1 | Growth Rate [9]: 0 | Growth Rate [5]: 1 | Growth Rate [10]: 0

O=C(Nc1cccnn1)N1CCC(=Cc2cccc(Oc3ccc(C(F)(F)F)cn3)c2)CC1
Growth Rate [6]: 0 | Growth Rate [1]: 0 | Growth Rate [3]: 0 | Growth Rate [8]: 1 | Growth Rate [4]: 0 | Growth Rate [5]: 0

COc1cc(N2CCN(C)CC2)ccc1Nc1ncc2c(n1)N(C)c1ccccc1C(=O)N2C
Growth Rate [6]: 0 | Growth Rate [7]: 1 | Growth Rate [1]: 1 | Growth Rate [2]: 0 | Growth Rate [3]: 1 | Growth Rate [4]: 0 | Growth Rate [5]: 0

CCNc1cc(N[C@H]2CC[C@H](O)CC2)nc(Nc2ccc3c(ccn3Cc3ccccc3)c2)n1
Growth Rate [6]: 0 | Growth Rate [1]: 0 | Growth Rate [3]: 0 | Growth Rate [4]: 0 | Growth Rate [5]: 0

CCOc1cc(C(=O)N2CCC(N3CCN(C)CC3)CC2)ccc1Nc1ncc2c(n1)N(C1CCCC1)c1ccccc1C(=O)N2C
Growth Rate [7]: 0 | Growth Rate [1]: 1 | Growth Rate [3]: 0 | Growth Rate [8]: 1 | Growth Rate [4]: 0 | Growth Rate [5]: 0

O=C1N/C(=N/c2ccccc2F)S/C1=C\c1ccc(C(=O)O)cc1
Growth Rate [6]: 0 | Growth Rate [7]: 1 | Growth Rate [3]: 1 | Growth Rate [8]: 0 | Growth Rate [4]: 1 | Growth Rate [9]: 0 | Growth Rate [5]: 1 | Growth Rate [10]: 0

CN([C@@H](Cc1ccc(OS(=O)(=O)c2cccc3cnccc23)cc1)C(=O)N1CCN(c2ccccc2)CC1)S(=O)(=O)c1cccc2cnccc12
Growth Rate [7]: 0 | Growth Rate [1]: 1 | Growth Rate [3]: 1 | Growth Rate [4]: 1 | Growth Rate [5]: 1

O=C(Nc1ccc(Cl)cc1)Nc1cccc(-c2cccc(N3CCCC3)n2)c1
Growth Rate [6]: 0 | Growth Rate [3]: 0 | Growth Rate [4]: 0 | Growth Rate [5]: 0

CCn1c(=O)c(-c2ccc(-c3cncs3)cc2Cl)cc2cnc(Nc3ccc(N4CCN(C)CC4)cc3)nc21
Growth Rate [7]: 1 | Growth Rate [3]: 0 | Growth Rate [8]: 1 | Growth Rate [4]: 0 | Growth Rate [5]: 0

Cc1ccc(C(=O)Nc2cccc(C(F)(F)F)c2)cc1Nc1nc(-c2cccnc2)nc2c1cnn2C
Growth Rate [1]: 0 | Growth Rate [3]: 0 | Growth Rate [4]: 0 | Growth Rate [5]: 0

CCCS(=O)(=O)c1nc(NC2CC2)cc(-c2ccc3c(ccn3C3CC(C)(C)NC(C)(C)C3)c2)n1
Growth Rate [7]: 0 | Growth Rate [1]: 0 | Growth Rate [3]: 0 | Growth Rate [4]: 0 | Growth Rate [5]: 0

COC(=N)c1nc2ccc3ncnc(Nc4ccc(OC)cc4F)c3c2s1
Growth Rate [7]: 1 | Growth Rate [2]: 1 | Growth Rate [3]: 0 | Growth Rate [4]: 0 | Growth Rate [5]: 0

CNC(=O)c1ccc(Nc2nc(OC3CCCC3)c3c(-c4ccc5nc(C)oc5c4)c[nH]c3n2)c(OC)c1
Growth Rate [3]: 1 | Growth Rate [4]: 0 | Growth Rate [5]: 0

CCN1CCN(Cc2ccc(Nc3ncc(F)c(-c4cc(F)c5nc(C)n(C(C)C)c5c4)n3)nc2)CC1.CS(=O)(=O)O
Growth Rate [7]: 1 | Growth Rate [3]: 1 | Growth Rate [4]: 0 | Growth Rate [9]: 1 | Growth Rate [5]: 0

O=C(Nc1ccc(-c2ccnc(Nc3ccc(N4CCOCC4)cc3)n2)cc1)[C@@H]1CCCN1
Growth Rate [7]: 0 | Growth Rate [3]: 1 | Growth Rate [4]: 1 | Growth Rate [5]: 1

CCN(CC)S(=O)(=O)Nc1cccc(-c2ccc3c(NC(=O)C4CC4)n[nH]c3c2)c1
Growth Rate [6]: 0 | Growth Rate [1]: 0 | Growth Rate [3]: 0 | Growth Rate [4]: 0 | Growth Rate [5]: 0

CCc1cccc(CC)c1NC(=O)c1nn(C)c2c1CCc1cnc(Nc3ccc(N4CCN(C)CC4)cc3OC)nc1-2
Growth Rate [7]: 0 | Growth Rate [1]: 1 | Growth Rate [3]: 0 | Growth Rate [4]: 0 | Growth Rate [5]: 0

Cl.O=c1c2cccn2c2ccccc2n1CCCN1CCC(c2ccc(Cl)cc2)CC1
Growth Rate [7]: 0 | Growth Rate [8]: 1 | Growth Rate [4]: 1 | Growth Rate [5]: 1

CNc1cc(Oc2cc(C(=O)Nc3cc(N4CCN(C)CC4)cc(C(F)(F)F)c3)ccc2C)ncn1
Growth Rate [6]: 0 | Growth Rate [7]: 1 | Growth Rate [1]: 0 | Growth Rate [3]: 0 | Growth Rate [4]: 0 | Growth Rate [5]: 0

Cl.O=C(c1ccc(Nc2nccc(-c3cc4ccccc4s3)n2)cc1)N1CCC(N2CCCC2)CC1
Growth Rate [7]: 0 | Growth Rate [3]: 0 | Growth Rate [4]: 0 | Growth Rate [5]: 0

COc1ccc(S(=O)(=O)N(CCO)c2ccccc2CN(C)C/C=C/c2ccc(Cl)cc2)cc1.O=P(O)(O)O
Growth Rate [6]: 0 | Growth Rate [7]: 1 | Growth Rate [1]: 0 | Growth Rate [2]: 1 | Growth Rate [3]: 0 | Growth Rate [8]: 1 | Growth Rate [4]: 0 | Growth Rate [5]: 0

Cc1ccc2nc(NCCN)c3ncc(C)n3c2c1.O=C(O)C(F)(F)F.O=C(O)C(F)(F)F
Growth Rate [6]: 0 | Growth Rate [1]: 0 | Growth Rate [3]: 0 | Growth Rate [4]: 0 | Growth Rate [5]: 0

NC(=O)c1cccc(-c2cc(Nc3ccc(OC(F)(F)F)cc3)ncn2)c1
Growth Rate [7]: 1 | Growth Rate [1]: 1 | Growth Rate [3]: 0 | Growth Rate [4]: 1 | Growth Rate [9]: 0 | Growth Rate [5]: 1 | Growth Rate [10]: 0

CN1C2CCC1CC(OC(c1ccc(F)cc1)c1ccc(F)cc1)C2.Cl (stereo not given)
Growth Rate [2]: 0 | Growth Rate [3]: 1 | Growth Rate [8]: 0 | Growth Rate [4]: 0 | Growth Rate [5]: 0

CCOC(=O)c1c(C)[nH]c2ccc3c(c12)CN1CCc2cc(OC)ccc2C1O3 (stereo not given)
Growth Rate [6]: 1 | Growth Rate [2]: 1 | Growth Rate [3]: 0 | Growth Rate [4]: 0 | Growth Rate [5]: 0

C=CCn1c(=O)c2cnc(Nc3ccc(N4CCN(C)CC4)cc3)nc2n1-c1cccc(C(C)(C)O)n1 [ADAVOSERTIB]
Growth Rate [6]: 0 | Growth Rate [1]: 0 | Growth Rate [3]: 0 | Growth Rate [4]: 0 | Growth Rate [5]: 0

COc1cc(N2CCC(N3CCN(C)CC3)CC2)ccc1Nc1ncnc(Nc2ccccc2S(=O)(=O)C(C)C)n1 [ASP-3026]
Growth Rate [7]: 0 | Growth Rate [1]: 0 | Growth Rate [2]: 1 | Growth Rate [3]: 0 | Growth Rate [4]: 0 | Growth Rate [5]: 0

O=C(Nc1ccc(-n2nc(-c3cccnc3)cc2C(F)(F)F)cn1)c1ccc(-c2ccccc2)c(F)c1 [BI 2049]
Growth Rate [1]: 0 | Growth Rate [2]: 1 | Growth Rate [3]: 0 | Growth Rate [4]: 0 | Growth Rate [5]: 0

COCC(=O)NC/C=C/c1ccc2ncnc(Nc3ccc(Oc4ccc(C)nc4)c(C)c3)c2c1 [CP-724714]
Growth Rate [6]: 0 | Growth Rate [7]: 1 | Growth Rate [1]: 1 | Growth Rate [3]: 1 | Growth Rate [4]: 0 | Growth Rate [5]: 1 | Growth Rate [10]: 0

COc1cc2ncnc(Nc3ccc(F)c(Cl)c3)c2cc1NC(=O)/C=C/CN1CCCCC1 [DACOMITINIB ANHYDROUS]
Growth Rate [6]: 0 | Growth Rate [1]: 0 | Growth Rate [3]: 0 | Growth Rate [4]: 0 | Growth Rate [5]: 0

C=C1/C(=C\C=C2/CCC[C@]3(C)[C@@H]([C@H](C)/C=C/[C@H](C)C(C)C)CC[C@@H]23)C[C@@H](O)C[C@@H]1O [DOXERCALCIFEROL]
Growth Rate [6]: 0 | Growth Rate [3]: 1 | Growth Rate [8]: 0 | Growth Rate [4]: 1 | Growth Rate [9]: 0 | Growth Rate [5]: 0
